From US12194080B2, “Methods for identification, assessment, prevention, and treatment of metabolic disorders using PM20D1 and N-lipidated amino acids” (Dana-Farber Cancer Institute, Inc., priority 2015, dated 2025)

How the values were obtained:
C2C12 cells = assay: Mitochondrial membrane potential by TMRM fluorescence; type: cell-based, mouse; details: 20 min
Experimental: Mitochondrial membrane potential was measured using tetramethylrhodamine methyl ester (TMRM, Life Technologies) fluorescence. C2C12 cells were plated in 6-well plates and grown to 80-90% confluence. Cells were then washed once with PBS and switched into Seahorse respiration buffer with the indicated compounds at the indicated concentrations: TMRM (100 nM), oligomycin (1 μM), FCCP (0.4 μM), and C18:1-Phe (10 or 50 μM). After 20 min. incubation at 37° C., the media was aspirated, cells were washed once with PBS, and trypsinized. Trypsinized cells were directly resuspended in PBS (total volume 300 μl), stored on ice, and analyzed on a FACSCanto™ II (BD Biosciences) with 20,000 events per sample.

U2OS cells = assay: Cellular oxygen consumption rate (uncoupled respiration), U2OS cells; type: cell-based, human; details: 50 μM, after oligomycin 1 μM
Experimental: (§1) C2C12, U2O5, and 293A cells were cultured in DMEM with 10% FBS and pen/strep. Primary inguinal (iWAT) and brown (BAT) adipocytes were obtained as follows. The stromal-vascular fraction of inguinal (iWAT) pad from 4-12 week old male mice was dissected, minced, and digested for 45 min. at 37° C. in PBS containing 10 mM CaCl2, 2.4 U/ml dispase II (Roche), and 1.5 U/ml collagenase D (Roche). The stromal-vascular fraction of brown fat (BAT) pads from newborn (P1-P14) pups was dissected, minced, and digested for 45 min at 37° C. in PBS containing 1.3 mM CaCl2, 120 mM NaCl, 5 mM KCl, 5 mM glucose, 100 mM HEPES, 4% BSA, and 1.5 mg/ml collagenase B (Roche). Digested tissue was diluted with adipocyte culture media (DMEM/F-12, GlutaMAX™ supplement, Life Technologies, with 10% FBS and pen/strep) and centrifuged (600×g for 10 min.). The pellet was resuspended in 10 ml adipocyte culture media, strained through a 40 μm filter, and plated. Differentiation was induced by application of an adipogenic cocktail containing 5 μg/ml insulin (Sigma), 5 μM dexamethasone (Sigma), 250 μM isobutylmethylxanthine (Sigma), and 1 μM rosiglitazone (Cayman) for 2 days. Two days after induction, cells were maintained in adipocyte culture media containing 5 μg/ml insulin and 1 μM rosiglitazone.
(§2) Cellular oxygen consumption rates were determined using an XF24 Extracellular Flux Analyzer (Seahorse Biosciences). Oligomycin was purchased from EMD Millipore, and FCCP and rotenone were purchased from Sigma. C2C12 or U2OS cells were seeded at 30,000 or 50,000 cells/well, respectively in an XF24 cell culture microplate (V7-PS, Seahorse Bioscience) and analyzed the following day. Primary iWAT or BAT adipocytes were seeded at 15,000 cells/well, differentiation was induced the following day as described, and the cells were analyzed on day 5. On the day of analysis, the cells were washed once with Seahorse respiration buffer (8.3 g/1 DMEM, 1.8 g/l NaCl, 1 mM pyruvate, 20 mM glucose, pen/strep), placed in 0.5 ml Seahorse respiration buffer, and incubated in a CO2-free incubator for 1 hr. Port injection solutions were prepared as follows (final concentrations in assay in parentheses): 10 μM oligomycin (1 μM final), […] amino acid (50 μM final), 2 μM FCCP (0.2 μM final), and 30 μM rotenone (3 μM final). The Seahorse program was run as follows: basal measurement, 3 cycles; inject port A (oligomycin), 3 cycles; inject port B (compounds), 8 cycles; inject port C (FCCP), 3 cycles; inject port D (rotenone), 3 cycles. Each cycle consisted of mix 4 min, wait 0 min, and measure 2 min. For data expressed as a percentage of oligomycin-treated basal, the respiration at cycle 6 was normalized to 100%, and the maximum respiration at any time point between cycles 7 and 15 inclusive was used.

[1] = system: primary inguinal fat cells, primary BAT cells, C2C12 cells, and U2OS cells; assay: Uncoupled respiration cellular assays (variety of cell types); type: cell-based; details: N-acyl amino acids at 10-100 uM
Experimental: as §2

[2] = system: differentiated primary iWAT cells; assay: Cellular oxygen consumption rate (Seahorse XF24), differentiated primary iWAT adipocytes; type: cell-based, mouse; details: 50 μM, in presence of oligomycin (1 μM)
Experimental: as §1, §2

[3] = system: Diet induced obese (DIO) mice; assay: Chronic daily i.p. administration of N-acyl amino acids to DIO mice (body weight, food intake, body composition, GTT); type: in vivo, mouse; details: chronic treatment, C18:1-Phe 30 or 50 mg/kg/day, C20:4-Gly 15 mg/kg/day, i.p.
Experimental: (§3) Animal experiments were performed according to procedures approved by the Beth Israel Deaconess Medical Center IACUC. Mice were maintained in 12 h light-dark cycles at 22° C. and fed a standard irradiated rodent chow diet. All experiments on wild-type mice were performed with male C57BL/6 mice purchased from Jackson Laboratories, except for the AAV experiments, which were performed with male C57BL/6 mice from Charles River. UCP1-KO (stock #017476) and 16-20 week DIO mice (stock #380050) were obtained from Jackson Laboratories. For AAV injection experiments, mice were gently warmed using a 250 W clear infrared heat lamp, immobilized, and injected via tail vein with 10^10 virus/mouse (diluted in saline) in a total volume of 100 μl/mouse. Where indicated, mice were placed on high-fat diet (60% fat, Research Diets). For cold exposure experiments, mice were group housed and placed at 4° C. for the indicated times. For the preparation of C18:1-Phe for in vivo injections, compounds were dissolved in 18:1:1 v/v/v saline:Kolliphor® EL (Sigma Aldrich):DMSO and sonicated until homogeneous. Mice were administered compounds at 5 μl/g body weight at the indicated doses. For all injection experiments, mice were mock injected with saline daily for 3 days prior to the start of the experiments. For glucose tolerance tests (GTTs), mice received their final dose of compound the day prior to the assay and were then fasted overnight. Glucose was administered at 1.5 g/kg.
(§4) Energy expenditure, O2 consumption, CO2 production, respiratory exchange ratio, total locomotor activity, and food intake measurements were made with a 16-cage Columbus Instruments Oxymax Comprehensive Lab Animal Monitoring System (CLAMS) at ambient room temperature (21-23° C.). Mice were acclimated for one day in metabolic cages prior to data collection. Whole-body composition was assessed with an EchoMRI™ 3-in-1 on conscious mice.

[4] = system: Diet induced obese (DIO) mice; assay: Indirect calorimetry (CLAMS) of high fat diet/DIO mice treated with N-acyl amino acids; type: in vivo, mouse; details: daily i.p.: C18:1-Leu 25, C18:1-Phe 30, C20:4-Gly 15 mg/kg/day
Experimental: as §3, §4

[5] = Plasma AST, ALT and cytokine array after chronic treatment of DIO mice; type: in vivo, mouse; details: 9 days chronic treatment, versus vehicle
Experimental: FIG. 14 includes 11 panels, identified as panels A, B, C, D, E, F, G, H, I, J, and K, which show the effects of chronic C20:4-Gly administration to mice. Panels A-F show the change in body weight (Panel A), daily and cumulative food intake (Panels B and C), and total body weight at day 7 (Panel D), VO2 (Panel E), and movement (Panel F) of 14 week DIO mice treated daily with vehicle or C20:4-Gly (20 mg/kg/day, i.p.). For Panels E and F, measurements were recorded for 2 days following 7 days chronic treatment with vehicle or C20:4-Gly (20 mg/kg/day, i.p.); during this time daily administration of the indicated compounds continued. […] Panels G-J show plasma AST (Panel G), ALT (Panel H), and plasma cytokine array profiling (Panels I and J) following 9 days chronic treatment with vehicle or C20:4-Gly (20 mg/kg/day, i.p.). For Panels G-J, plasma was collected 24 hr following the last dose of vehicle or C20:4-Gly. For Panels A-H, n=8/group, mean±SEM, *p<0.05, **p<0.01. For Panels I and J, plasma from 4 mice/group were pooled for each array.

Structure (SMILES): CC[C@H]1/C=C/C=C/C[C@@H](C)[C@H](O)[C@@](C)(O)C(=O)[C@@H](C)[C@H](O)[C@@H](C)C(=O)[C@@H](C)[C@H](O)[C@@H](C)/C=C/C(=O)O[C@@H]2[C@H](C)[C@H](CC1)O[C@]1(CC[C@H](C)[C@H](C[C@@H](C)O)O1)[C@H]2C [oligomycin]
- mitochondrial membrane potential (C2C12 cells; TMRM fluorescence): increased the membrane potential

Structure (SMILES): N#CC(C#N)=NNc1ccc(OC(F)(F)F)cc1 [FCCP]
- decrease of TMRM fluorescence (C2C12 cells; co-treatment with oligomycin 1 μM, C18:1-Phe 50 μM, FCCP 0.4 μM): ~70%

Structure (SMILES): CCCCCCCCCCCCCCCCCCCC(=O)N[C@@H](Cc1ccccc1)C(=O)O [N-arachidoyl phenylalanine, Icosanoyl-L-phenylalanine]
- uncoupling activity (uncoupled respiration) (U2OS cells): completely lacked uncoupling activity
- uncoupled respiration in cells [1]: inactive

Structure (SMILES): CCCCC/C=C\C/C=C\C/C=C\C/C=C\CCCC(=O)NCC(=O)O [C20:4-Gly, N-arachidonoyl glycine]
- maximal OCR versus DMSO at the same time point [2]: 285%
- maximal OCR versus oligomycin-treated basal respiration [2]: 295%
- uncoupled respiration in cells [1]: increased uncoupled respiration
- food intake [3]: reduced food intake
- VO2 [4]: significantly augmented
- movement [4]: no effects
- plasma ALT [5]: no sigificant elevations
- plasma AST [5]: no sigificant elevations
- plasma cytokines [5]: no sigificant elevations
